{"source": "paper PMC9155639", "about": "(Journal of Antimicrobial Chemotherapy, 2022)", "key": {"BpMip [1]": {"target": "T1, BpMip (Burkholderia pseudomallei, UniProt Q63J95)", "T1 sequence (Q63J95 whole entry, added parts left off)": "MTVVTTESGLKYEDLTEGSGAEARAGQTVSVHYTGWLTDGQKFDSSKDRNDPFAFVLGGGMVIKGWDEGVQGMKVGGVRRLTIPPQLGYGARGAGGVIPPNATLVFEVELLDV", "experiment": "biochemical"}, "BpMip [2]": {"target": "T1, BpMip", "experiment": "biochemical", "format": "binding, B. pseudomallei"}}}
{"smiles": "COc1cc(NC(=O)CCNC(=O)[C@@H]2CCCCN2S(=O)(=O)Cc2ccccc2)cc(OC)c1OC", "note": "[SF339, (S)-1-(benzylsulfonyl)-N-(3-oxo-3-((3,4,5-trimethoxyphenyl)amino)propyl)piperidine-2-carboxamide]", "values": [{"measurement": "IC50", "setting": "BpMip [1]", "value": 260, "unit": "nM"}, {"measurement": "Ki", "setting": "BpMip [1]; Ki (μM) Mean", "value": 0.45, "unit": "µM"}, {"measurement": "Kd", "setting": "BpMip [2]", "value": "10900 ± 200", "unit": "nM"}, {"measurement": "effect on B. pseudomallei-induced cytotoxicity", "setting": "B. pseudomallei K96243", "value": "no statistically significant difference"}]}
